Assay results as given in patent US5348946A, “Heteroanthracycline antitumor analogs” (Biochem Immunosystems, Inc., priority 1991, dated 1994).

Key:
Assay type in all cases: cell-based
U251 = assay: in vitro cytotoxicity evaluation, CNS Cancer; conditions: Homo sapiens, U-251, 48 h, U251, two days, sulforhodamine B
Description: (§1) These assays were carried out at the Developmental Therapeutics Program, Division of Cancer Treatment, National Cancer Institute (Bethesda, Md., USA). The method consists of incubating varying concentrations of the drug with an inoculum of cells for two days.
(§2) It should be noted that the first two parameters (GI50 and TGI) relate to antiproliferation effects while the third one (LC50) indicates true cytotoxicity.

SF-295 = assay: in vitro cytotoxicity evaluation, CNS Cancer; conditions: Homo sapiens, 48 h, SF-295, two days, sulforhodamine B
Description: as §1, §2

SNB-78 = assay: in vitro cytotoxicity evaluation, CNS Cancer; conditions: Homo sapiens, 48 h, SNB-78, two days, sulforhodamine B
Description: as §1, §2

SNB-75 = assay: in vitro cytotoxicity evaluation, CNS Cancer; conditions: Homo sapiens, 48 h, SNB-75, two days, sulforhodamine B
Description: as §1, §2

F498 = assay: in vitro cytotoxicity evaluation, CNS Cancer; conditions: Homo sapiens, 48 h, F498, two days, sulforhodamine B
Description: as §1, §2

SNB-19 = assay: in vitro cytotoxicity evaluation, CNS Cancer; conditions: Homo sapiens, 48 h, SNB-19, two days, sulforhodamine B
Description: as §1, §2

SF-268 = assay: in vitro cytotoxicity evaluation, CNS Cancer; conditions: Homo sapiens, 48 h, SF-268, two days, sulforhodamine B
Description: as §1, §2

SF-539 = assay: in vitro cytotoxicity evaluation, CNS Cancer; conditions: Homo sapiens, 48 h, SF-539, two days, sulforhodamine B
Description: as §1, §2

A-549/ATCC = assay: in vitro cytotoxicity evaluation, Non-Small Cell Lung Cancer; conditions: Homo sapiens, A549, 48 h, two days, sulforhodamine B
Description: as §1, §2

DMS 114 = assay: in vitro cytotoxicity evaluation, Small Cell Lung Cancer; conditions: Homo sapiens, 48 h, DMS 114, two days, sulforhodamine B
Description: BCH-255 (compound 39) was subjected to an in vitro cytotoxicity evaluation against 59 tumor cell lines to assess its potential as an anticancer drug. These assays were carried out at the Developmental Therapeutics Program, Division of Cancer Treatment, National Cancer Institute (Bethesda, Md., USA). The method consists of incubating varying concentrations of the drug with an inoculum of cells for two days. At the end of the assay, the number of viable cells is estimated with a dye, sulforhodamine B. The protocol is described in M. R. Boyd, "Status of the NCI Preclinical Antitumor Drug Discovery Screen", Principles and Practices of Oncology, 3, pp. 1-12, 1989.
There are three parameters calculated: GI50, the log molar concentration of drug required to inhibit cell growth by 50%; TGI, the log molar concentration of drug required to completely block cell growth; LC50, the log molar concentration of drug required to reduce the original cell number by 50%. It should be noted that the first two parameters (GI50 and TGI) relate to antiproliferation effects while the third one (LC50) indicates true cytotoxicity.

DMS 273 = assay: as above; conditions: Homo sapiens, 48 h, DMS 273, two days, sulforhodamine B
Description: as §1, §2

TK-10 = assay: in vitro cytotoxicity evaluation, Renal Cancer; conditions: Homo sapiens, 48 h, TK-10, two days, sulforhodamine B
Description: as §1, §2

CAKI-1 = assay: in vitro cytotoxicity evaluation, Renal Cancer; conditions: Homo sapiens, 48 h, CAKI-1, two days, sulforhodamine B
Description: as §1, §2

RXF-631 = assay: in vitro cytotoxicity evaluation, Renal Cancer; conditions: Homo sapiens, 48 h, RXF-631, two days, sulforhodamine B
Description: as §1, §2

UO-31 = assay: in vitro cytotoxicity evaluation, Renal Cancer; conditions: Homo sapiens, 48 h, UO-31, two days, sulforhodamine B
Description: as §1, §2

RXF-393 = assay: in vitro cytotoxicity evaluation, Renal Cancer; conditions: Homo sapiens, 48 h, RXF-393, two days, sulforhodamine B
Description: as §1, §2

ACHN = assay: in vitro cytotoxicity evaluation, Renal Cancer; conditions: Homo sapiens, 48 h, two days, sulforhodamine B
Description: as §1, §2

SN12C = assay: in vitro cytotoxicity evaluation, Renal Cancer; conditions: Homo sapiens, 48 h, two days, sulforhodamine B
Description: as §1, §2

786-O = assay: in vitro cytotoxicity evaluation, Renal Cancer; conditions: Homo sapiens, 786-0, 48 h, two days, sulforhodamine B
Description: as §1, §2

[1] = read-out: LOG10 G150 (GI50) (converted)
[2] = read-out: Log10 LC50 (converted)
[3] = read-out: Log10 TGI (converted)

Work on COc1c2c(c(OC)c3c(=O)c4ccccc4sc13)CS(=O)(=O)[C@@H]2O[C@H]1C[C@H](N)[C@H](O)[C@H](C)O1 [BCH-255, (1S ) 1-daunosamine-4-11-dimethoxy-5-oxo-5-H-1,3-dihydrothioxantheno [2,3-c] thiophene-2,2-dioxide] yielded a GI50 (U251; [1]) of 17.4 µM, a CC50 (U251; [2]) of 56.2 µM and an IC (total growth inhibition (TGI)) (U251; [3]) of 31.6 µM. It also gave a GI50 (SF-295; [1]) of 16.2 µM, a CC50 (SF-295; [2]) of 63.1 µM and an IC (total growth inhibition (TGI)) (SF-295; [3]) of 32.4 µM. For the same compound, the GI50 (SNB-78; [1]) was 20.4 µM, the CC50 (SNB-78; [2]) was 91.2 µM and the IC (total growth inhibition (TGI)) (SNB-78; [3]) was 42.7 µM. For the same compound, the GI50 (SNB-75; [1]) was 15.8 µM, the CC50 (SNB-75; [2]) was 57.5 µM and the IC (total growth inhibition (TGI)) (SNB-75; [3]) was 30.2 µM. For the same compound, the GI50 (F498; [1]) was 16.6 µM, the CC50 (F498; [2]) was 58.9 µM and the IC (total growth inhibition (TGI)) (F498; [3]) was 31.6 µM. For the same compound, the GI50 (SNB-19; [1]) was 30.9 µM, the CC50 (SNB-19; [2]) was > 100 µM and the IC (total growth inhibition (TGI)) (SNB-19; read-out: Log10 TGI) was > 100 µM. For the same compound, the GI50 (SF-268; [1]) was 20.9 µM, the CC50 (SF-268; [2]) was > 100 µM and the IC (total growth inhibition (TGI)) (SF-268; [3]) was 52.5 µM. The GI50 (SF-539; [1]) was 17.4 µM, the CC50 (SF-539; [2]) was 57.5 µM and the IC (total growth inhibition (TGI)) (SF-539; [3]) was 31.6 µM. The GI50 (A-549/ATCC; [1]) was 19.5 µM, the CC50 (A-549/ATCC; [2]) was 69.2 µM and the IC (total growth inhibition (TGI)) (A-549/ATCC; [3]) was 36.3 µM. The GI50 (DMS 114; [1]) was 17.8 µM, the IC (total growth inhibition (TGI)) (DMS 114; [3]) was 37.2 µM and the GI50 (DMS 273; [1]) was 18.2 µM. The CC50 (DMS 273; [2]) was 70.8 µM, the IC (total growth inhibition (TGI)) (DMS 273; [3]) was 35.5 µM and the GI50 (TK-10; [1]) was 25.7 µM. For the same compound, the CC50 (TK-10; [2]) was 77.6 µM, the IC (total growth inhibition (TGI)) (TK-10; [3]) was 44.7 µM and the GI50 (CAKI-1; [1]) was 19.5 µM. It also gave a CC50 (CAKI-1; [2]) of 74.1 µM, an IC (total growth inhibition (TGI)) (CAKI-1; [3]) of 38 µM and a GI50 (RXF-631; [1]) of 20 µM. The CC50 (RXF-631; [2]) was > 100 µM, the IC (total growth inhibition (TGI)) (RXF-631; [3]) was 46.8 µM and the GI50 (UO-31; [1]) was 19.5 µM. For the same compound, the CC50 (UO-31; [2]) was 91.2 µM, the IC (total growth inhibition (TGI)) (UO-31; [3]) was 42.7 µM and the GI50 (RXF-393; [1]) was 17 µM. It also gave a CC50 (RXF-393; [2]) of 72.4 µM, an IC (total growth inhibition (TGI)) (RXF-393; [3]) of 35.5 µM and a GI50 (ACHN; [1]) of 17.4 µM. The CC50 (ACHN; [2]) was 61.7 µM, the IC (total growth inhibition (TGI)) (ACHN; [3]) was 32.4 µM and the GI50 (SN12C; [1]) was 18.2 µM. The CC50 (SN12C; [2]) was 72.4 µM, the IC (total growth inhibition (TGI)) (SN12C; [3]) was 36.3 µM and the GI50 (786-O; [1]) was 16.2 µM. The CC50 (786-O; [2]) was 58.9 µM and the IC (total growth inhibition (TGI)) (786-O; [3]) was 30.9 µM.
